pKi: −log10 of the molar value.
Molecular target: T1, Dimer of Gag-Pol polyprotein [489-587] (Human immunodeficiency virus 1, UniProt P12497)
T1 construct: 489-587
Experiment: Protease Inhibition Assay
Settings: pH 5.5; 37 °C
Method: Inhibition of HIV protease was measured by assay of the cleavage of a fluorescent peptide substrate. The fluorescent product (2-aminobenzoyl-Ala-Thr-His-Gln-Val-Tyr) was separated from the fluorescent substrate by anion-exchange HPLC on a Mono-Q anion-exchange column (Pharmacia), and fluorescence was monitored at an excitation wavelength of 330 nm and an emission wavelength of 430 nm. Ki values for inhibitor binding were estimated at fixed concentrations of substrate and inhibitor from fractional activity measurements by use of the modified Michaelis-Menten equation.

| SMILES | pKi |
| --- | --- |
| O=C1N(Cc2ccc(CO)cc2)[C@H](CC2CCCCC2)[C@H](O)[C@@H](O)[C@@H](CC2CCCCC2)N1Cc1ccc(CO)cc1 [(4R,5S,6S,7R)-4,7-bis(cyclohexylmethyl)-5,6-dihydroxy-1,3-bis({[4-(hydroxymethyl)phenyl]methyl})-1,3-diazepan-2-one] | 7.49 |
| O=C1N(Cc2ccc(CO)cc2)[C@H](Cc2ccc(F)c(F)c2)[C@H](O)[C@@H](O)[C@@H](Cc2ccc(F)c(F)c2)N1Cc1ccc(CO)cc1 [(4R,5S,6S,7R)-4,7-bis[(3,4-difluorophenyl)methyl]-5,6-dihydroxy-1,3-bis({[4-(hydroxymethyl)phenyl]methyl})-1,3-diazepan-2-one] | 9.33 |
| CC(C)C[C@@H]1[C@H](O)[C@@H](O)[C@@H](CC(C)C)N(Cc2ccc(CO)cc2)C(=O)N1Cc1ccc(CO)cc1 [(4R,5S,6S,7R)-5,6-dihydroxy-1,3-bis({[4-(hydroxymethyl)phenyl]methyl})-4,7-bis(2-methylpropyl)-1,3-diazepan-2-one] | 7.42 |
| O=C1N(Cc2ccc(CO)cc2)[C@H](Cc2ccncc2)[C@H](O)[C@@H](O)[C@@H](Cc2ccncc2)N1Cc1ccc(CO)cc1 [(4R,5S,6S,7R)-5,6-dihydroxy-1,3-bis({[4-(hydroxymethyl)phenyl]methyl})-4,7-bis(pyridin-4-ylmethyl)-1,3-diazepan-2-one] | 8.32 |
| COc1cccc(C[C@@H]2[C@H](O)[C@@H](O)[C@@H](Cc3cccc(OC)c3)N(Cc3ccc(CO)cc3)C(=O)N2Cc2ccc(CO)cc2)c1 [(4R,5S,6S,7R)-5,6-dihydroxy-1,3-bis({[4-(hydroxymethyl)phenyl]methyl})-4,7-bis[(3-methoxyphenyl)methyl]-1,3-diazepan-2-one] | 9.96 |
| O=C1N(CC2CC2)[C@H](Cc2cccs2)[C@H](O)[C@@H](O)[C@@H](Cc2cccs2)N1CC1CC1 [(4R,5S,6S,7R)-Hexahydro-5,6-dihydroxy-1,3-bis-(cyclopropylmethyl)-4,7-bis(2-thienylmethyl)-2H-1,3-diazapin-2-one] | 8.04 |
| CSCC[C@@H]1[C@H](O)[C@@H](O)[C@@H](CCSC)N(Cc2ccc(CO)cc2)C(=O)N1Cc1ccc(CO)cc1 [(4R,5S,6S,7R)-Hexahydro-5,6-dihydroxy-1,3-bis-[[4-(hydroxymethyl)phenyl]methyl]-4,7-bis[2-(methylthio)ethyl]-2H-1,3-diazapin-2-one] | 5.41 |
| O=C1N(Cc2ccc(CO)cc2)[C@H](Cc2ccc(F)cc2)[C@H](O)[C@@H](O)[C@@H](Cc2ccc(F)cc2)N1Cc1ccc(CO)cc1 [(4R,5S,6S,7R)-Hexahydro-5,6-dihydroxy-1,3-bis-[[4-(hydroxymethyl)phenyl]methyl]-4,7-bis[(4-fluorophenyl)methyl]-2H-1,3-diazapin-2-one] | 9.36 |
| COc1ccc(C[C@@H]2[C@H](O)[C@@H](O)[C@@H](Cc3ccc(OC)cc3)N(Cc3ccc(CO)cc3)C(=O)N2Cc2ccc(CO)cc2)cc1 [(4R,5S,6S,7R)-Hexahydro-5,6-dihydroxy-1,3-bis-[[4-(hydroxymethyl)phenyl]methyl]-4,7-bis[(4-methoxyphenyl)methyl]-2H-1,3-diazapin-2-one] | 9.62 |
| O=C(Nc1nc2ccccc2[nH]1)c1cccc(CN2C(=O)N(Cc3cccc(C(=O)Nc4nc5ccccc5[nH]4)c3)[C@H](Cc3ccccc3)[C@H](O)[C@@H](O)[C@H]2Cc2ccccc2)c1 [N-(1H-1,3-benzodiazol-2-yl)-3-{[(4R,5S,6S,7R)-3-{[3-(1H-1,3-benzodiazol-2-ylcarbamoyl)phenyl]methyl}-4,7-dibenzyl-5,6-dihydroxy-2-oxo-1,3-diazepan-1-yl]methyl}benzamide] | 10.62 |

Source: BindingDB's records for doi:10.1016/s0960-894x(98)00175-9 (Dupont Pharmaceuticals, 1998)
